Data set [1] deals with T1, Alpha glucosidase (Homo sapiens, UniProt O43451+P10253+P14410+Q2M2H8). Briefly: Inhibition of alpha glucosidase (unknown origin) at 50 uM relative to control. The data set is classed as protein assay.
Data set [2] has as its target T1, Alpha glucosidase. Nature of the data set: Inhibition of alpha glucosidase (unknown origin). Type of data set: protein assay.
The target in data set [3] is T1, Alpha glucosidase. Nature of the data set: Competitive inhibition of alpha glucosidase (unknown origin) using pNPG as substrate by Lineweaver-Burk plot analysis. The data set is classed as protein assay.
The target in data set [4] is T1, Alpha glucosidase. Nature of the data set: Inhibition of alpha glucosidase (unknown origin) using p-nitrophenyl glucopyranoside as substrate pre incubated for 10 mins followed by substrate addition and measured after 30 mins by plate reader analysis. Type of data set: protein assay.
Data set [5] in a line: Cytotoxicity against mouse RAW264.7 cells assessed as inhibition of cell growth at 100 uM by CCK-8 assay relative to control. Type of data set: toxicity, cell-based. As to conditions: read-out: Activity. A general note: Formazan colour is commonly taken as a measure of viable cells.
For data set [6], the target named is T1, Alpha glucosidase. Nature of the data set: Non-competitive inhibition of alpha glucosidase (unknown origin) assessed as inhibition constant using pNPG as substrate by Dixon plot analysis. Type of data set: protein assay.
A short description of data set [7]: Cytotoxicity against human HepG2 cells assessed as inhibition of cell growth at 100 uM by CCK-8 assay relative to control. The data set is classed as toxicity, cell-based. As to conditions: read-out: Activity.
Data set [8] has as its target T1, Alpha glucosidase. Nature of the data set: Potency index, […] for inhibition of alpha glucosidase (unknown origin). The data set is classed as protein assay.
The nature of data set [9]: Cytotoxicity against human HEK293 cells assessed as inhibition of cell growth at 100 uM by CCK-8 assay relative to control. Type of data set: toxicity, cell-based. Particulars: read-out: Activity.

The source made the active and inactive calls. No cut-off for these calls is given here.

The IC50 is the concentration needed to halve the response being measured. Read a low IC50 as greater potency. In turn, `O=C(Nc1nccs1)c1ccc(-c2ccccc2[N+](=O)[O-])o1` came in with an inhibition against Alpha glucosidase [1] of 87.7%. Also, the IC50 against Alpha glucosidase [2] was 26.943 µM.

`O=C(Sc1nccs1)c1ccc(-c2ccc(Br)cc2)o1`: the inhibition on Alpha glucosidase [1] was determined as 89.9%. In addition, the half-inhibitory concentration (IC50) against Alpha glucosidase [2] was 5.283 µM.

`C[C@H]1O[C@H](O[C@H]2[C@H](O)[C@@H](O)[C@@H](O[C@H]3[C@H](O)[C@@H](O)C(O)O[C@@H]3CO)O[C@@H]2CO)[C@H](O)[C@@H](O)[C@@H]1N[C@H]1C=C(CO)[C@@H](O)[C@H](O)[C@H]1O` (stereo not given in full) registered an inhibition against Alpha glucosidase [1] of 11.5%. Also, the inhibition entry at Alpha glucosidase [3] was “Active”.

`O=C(Nc1nccs1)c1ccc(-c2c(F)cccc2F)o1` displayed an inhibition against Alpha glucosidase [1] of 21.6%. The IC50 against Alpha glucosidase [2] turned out to be 148.2 µM.

Molecule `Cc1ccc(-c2ccc(C(=O)Nc3nccs3)o2)cc1` had an inhibition on Alpha glucosidase [1] of 64.6%. This molecule also showed an IC50 against Alpha glucosidase [2] of 26.495 µM.

For the molecule `O=C(Sc1nccs1)c1ccc(-c2cccc([N+](=O)[O-])c2)o1`, the inhibition at Alpha glucosidase [1] was found to be 20.2%.

On to `O=C(Sc1nccs1)c1ccc(-c2ccc(Cl)cc2)o1`, for which the inhibition against Alpha glucosidase [1] stood at 84.2%. Also, the half-inhibitory concentration (IC50) against Alpha glucosidase [2] stood at 4.562 µM.

For the molecule `O=C(Sc1nccs1)c1ccc(-c2ccccc2Cl)o1`, the inhibition against Alpha glucosidase [1] was 88.2%. The molecule also came in with an IC50 against Alpha glucosidase [2] of 1.935 µM.

In the case of `CC(C)(C)c1cc(/C=N/Nc2nc(-c3ccc(Cl)cc3)cs2)cc(C(C)(C)C)c1O`, the concentration for half-maximal inhibition (IC50) against Alpha glucosidase [4] was 18.23 µM.

For the molecule `O=C(Nc1nccs1)c1ccc(-c2cccc(F)c2)o1`, at Alpha glucosidase [1], the inhibition is 88.1%. The molecule further yielded a concentration for half-maximal inhibition (IC50) against Alpha glucosidase [2] of 6.227 µM.

In turn, `O=C(Sc1nccs1)c1ccc(-c2ccc([N+](=O)[O-])cc2)o1` came in with an inhibition at Alpha glucosidase [1] of 85.7%. The molecule also displayed a half-inhibitory concentration (IC50) on Alpha glucosidase [2] of 8.934 µM.

`Cc1nnc(SC(=O)c2ccc(-c3cccc(F)c3)o2)s1` had a 50% inhibitory concentration (IC50) against Alpha glucosidase [2] of 0.082 µM.

Regarding `O=C(Nc1nccs1)c1ccc(-c2ccccc2Cl)o1`, the inhibition at Alpha glucosidase [1] was found to be 59.3%. Moreover, the half-maximal inhibitory concentration (IC50) against Alpha glucosidase [2] was 18.33 µM.

For `O=C(Nc1nccs1)c1ccc(-c2ccc(F)cc2)o1`, the inhibition against Alpha glucosidase [1] came to 67.4%. The IC50 on Alpha glucosidase [2] was determined as 20.717 µM.

`O=C(Nc1nccs1)c1ccc(-c2ccc(Br)cc2)o1`: the inhibition on Alpha glucosidase [1] was 74%. On Alpha glucosidase [2], this molecule displayed an IC50 of 24.125 µM.

`O=C(Nc1nccs1)c1ccc(-c2ccc([N+](=O)[O-])cc2)o1` yielded an inhibition on Alpha glucosidase [1] of 91.5%. On Alpha glucosidase [2], the IC50 is 4.987 µM.

`O=C(Sc1nncs1)c1ccc(-c2ccc(Cl)cc2)o1` showed a half-inhibitory concentration (IC50) against Alpha glucosidase [2] of 0.186 µM. That is a sub-micromolar value.

The molecule `O=C(Sc1nccs1)c1ccc(-c2c(F)cccc2F)o1` gave an inhibition against Alpha glucosidase [1] of 83.6%. Also, the half-inhibitory concentration (IC50) against Alpha glucosidase [2] was determined as 8.436 µM.

Broadly, the Ki is a measure of affinity in units of concentration, obtained from inhibition or displacement. As for `O=C(Sc1nccs1)c1ccc(-c2ccccc2[N+](=O)[O-])o1`, the inhibition at 100 µM turned out to be 38.1% in [5], 47.2% in data set [7] and 53.4% in data set [9]. In addition, the Ki on Alpha glucosidase [6] was determined as 2.04 µM. The molecule further returned an inhibition against Alpha glucosidase [1] of 98.5%. In addition, the Ratio IC50 at Alpha glucosidase [8] turned out to be 701. The molecule further came in with a half-inhibitory concentration (IC50) against Alpha glucosidase [2] of 0.645 µM.

As for `O=C(Sc1nccs1)c1ccc(-c2cccc(Cl)c2)o1`, at Alpha glucosidase [1], the inhibition was 94.4%. Moreover, the IC50 on Alpha glucosidase [2] stood at 2.611 µM.

For `Cc1ccc(-c2ccc(C(=O)Sc3nccs3)o2)cc1`, the inhibition against Alpha glucosidase [1] came out at 80.4%. The molecule also returned an IC50 against Alpha glucosidase [2] of 11.43 µM.

For `COc1ccc(-c2ccc(C(=O)Sc3nccs3)o2)cc1`, the inhibition against Alpha glucosidase [1] came to 78.6%. At Alpha glucosidase [2], this molecule showed a half-maximal inhibitory concentration (IC50) of 14.945 µM.

With `O=C(Nc1nccs1)c1ccc(-c2cccc([N+](=O)[O-])c2)o1`, the inhibition at 100 µM in data set [5] was determined as 16.4%; in data set [7], 13.7%; in [9] it was 28.4%. For the same molecule, the inhibitory constant (Ki) on Alpha glucosidase [6] came out at 367.24 µM. Further, the inhibition on Alpha glucosidase [1] was determined as 89.3%. Further, the inhibition result on Alpha glucosidase [3] is “Active”. The molecule also came in with a concentration for half-maximal inhibition (IC50) on Alpha glucosidase [2] of 4.12 µM.

Molecule `O=C(Sc1nccs1)c1ccc(-c2ccc(F)cc2F)o1` displayed an inhibition at Alpha glucosidase [1] of 86.1%. Moreover, the IC50 against Alpha glucosidase [2] stood at 6.935 µM.

At Alpha glucosidase [1], `O=C(Sc1nccs1)c1ccc(-c2ccccc2)o1` gave an inhibition of 100%. This molecule registered a concentration for half-maximal inhibition (IC50) against Alpha glucosidase [2] of 2.223 µM.

As for `O=C(Nc1nccs1)c1ccc(-c2cccc(Cl)c2)o1`, at Alpha glucosidase [1], the inhibition came out at 88.4%. Moreover, the IC50 against Alpha glucosidase [2] was found to be 5.871 µM.

Molecule `O=C(Nn1c(-c2cc3ccccc3oc2=O)cs/c1=N\c1ccc(Cl)c(Cl)c1)c1ccccc1O` yielded an IC50 on Alpha glucosidase [4] of 0.12 µM. In other words, the sub-micromolar range.

As for `O=C(Nc1nccs1)c1ccc(-c2ccc(Cl)cc2)o1`, the inhibition against Alpha glucosidase [1] stood at 69.1%. Besides, at Alpha glucosidase [2], the IC50 was 14.769 µM.

As to `N#C/N=c1\sccn1C(=O)c1ccc(-c2cccc(Cl)c2)o1`, the 50% inhibitory concentration (IC50) on Alpha glucosidase [2] came to 1.2 µM. This counts as single-digit micromolar.

Consider `O=C(Nc1nccs1)c1ccc(-c2ccc(F)cc2F)o1`, for which the inhibition against Alpha glucosidase [1] stood at 34.1%. Also, the 50% inhibitory concentration (IC50) against Alpha glucosidase [2] is 77.99 µM.

For the molecule `O=C(Nc1nccs1)c1ccc(-c2ccccc2F)o1`, the inhibition against Alpha glucosidase [1] is 87.6%. On Alpha glucosidase [2], the IC50 was 19.763 µM.

In the case of `O=C(Sc1nccs1)c1ccc(-c2ccc(F)cc2)o1`, the inhibition on Alpha glucosidase [1] is 43.4%.

At Alpha glucosidase [1], `O=C(Nc1nccs1)c1ccc(-c2ccccc2)o1` yielded an inhibition of 27.3%. The molecule further gave an IC50 at Alpha glucosidase [2] of 94.033 µM.

Regarding `COc1ccc(-c2ccc(C(=O)Nc3nccs3)o2)cc1`, the inhibition on Alpha glucosidase [1] was determined as 59%. Besides, the IC50 against Alpha glucosidase [2] came out at 30.94 µM.

Take `O=C(Sc1nccs1)c1ccc(-c2ccccc2F)o1`: on Alpha glucosidase [1], the inhibition came out at 83.6%. The half-inhibitory concentration (IC50) against Alpha glucosidase [2] was determined as 5.97 µM.

For the molecule `O=C(Sc1nccs1)c1ccc(-c2cccc(F)c2)o1`, on Alpha glucosidase [1], the inhibition is 87%. For the same molecule, the IC50 on Alpha glucosidase [2] came to 5.392 µM.

Source of the values: ChEMBL document CHEMBL5252570, “Synthesis and biological evaluation of 2,5-disubstituted furan derivatives containing 1,3-thiazole moiety as potential α-glucosidase inhibitors” (Bioorg Med Chem Lett, 2023).
